Experiments:
AGS = assay: Cell proliferation experiment (CellTiter-Glo); type: cell-based; conditions: Homo sapiens, AGS, 96 h, read-out: IC50(nM) AGS
KRAS G12D [1] = target: T1, KRAS G12D (Homo sapiens, UniProt P01116, G12D)
KRAS G12D [2] = target: T1, KRAS G12D; assay: cell-based; conditions: AGS

T1 sequence (P01116 1-188 isoform P01116-2 G12D): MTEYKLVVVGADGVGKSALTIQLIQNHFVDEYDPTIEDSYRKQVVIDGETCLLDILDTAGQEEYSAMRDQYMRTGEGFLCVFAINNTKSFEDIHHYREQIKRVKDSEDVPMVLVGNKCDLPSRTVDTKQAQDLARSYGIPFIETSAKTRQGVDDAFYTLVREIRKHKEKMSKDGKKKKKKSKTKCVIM

CCc1c(F)ccc2cc(O)cc(-c3ncc4c(N5CCC[C@@](C)(O)C5)nc(OCC5(CN6CCN(c7cc([C@H](C(=O)N8C[C@H](O)C[C@H]8C(=O)N[C@@H](C)c8ccc(-c9scnc9C)cc8)C(C)C)on7)CC6)CC5)nc4c3F)c12 [Compound 112]
IC50 (AGS): 57 nM | DC50 (KRAS G12D [1]): 5 nM | Dmax (KRAS G12D [2]): 95%

CCc1c(F)ccc2cc(O)cc(-c3ncc4c(N5CCC[C@@](C)(O)C5)nc(OCCN5CCC(COc6cc([C@H](C(=O)N7C[C@H](O)C[C@H]7C(=O)N[C@@H](C)c7ccc(-c8scnc8C)cc7)C(C)C)on6)CC5)nc4c3F)c12 [Compound 80]
IC50 (AGS): 63 nM | DC50 (KRAS G12D [1]): 40 nM | Dmax (KRAS G12D [2]): 95%

CCc1c(F)ccc2cc(O)cc(-c3ncc4c(N5CCC[C@@](C)(O)C5)nc(OC[C@]56CCCN5[C@@H](COc5ncc(-c7cn([C@H](C(=O)N8C[C@H](O)C[C@H]8C(=O)N[C@@H](C)c8ccc(-c9scnc9C)cc8)C(C)C)nn7)cn5)CC6)nc4c3F)c12 [Compound 158, (2S,4R)-1-((S)-2-(4-(2-(((3R,7aR)-7a-(((7-(8-ethyl-7-fluoro-3-hydroxynaphthalen-1-yl)-8-fluoro-4-((R)-3-hydroxy-3-methylpiperidin-1-yl)pyrido[4,3-d]pyrimidin-2-yl)oxy)methyl)cyclopropyl)hexahydro-1H-pyrrolizin-3-yl)methoxy)pyrimidin-5-yl)-1H-1,2,3-triazol-1-yl)-3-methylbutanoyl)-4-hydroxy-N-(((S)-1-(4-(4-methylthiazol-5-yl)phenyl)ethyl)pyrrolidine-2-carboxamide]
IC50 (AGS): 18 nM | DC50 (KRAS G12D [1]): 4.1 nM | Dmax (KRAS G12D [2]): 95%

CCc1c(F)ccc2cc(O)cc(-c3ncc4c(N5CCC[C@@](C)(O)C5)nc(OCC5(CN6CCC(Nc7ccc(-c8cn([C@H](C(=O)N9C[C@H](O)C[C@H]9C(=O)N[C@@H](C)c9ccc(-c%10scnc%10C)cc9)C(C)C)nn8)cn7)CC6)CC5)nc4c3F)c12 [Compound 152]
IC50 (AGS): 30 nM | DC50 (KRAS G12D [1]): 27 nM | Dmax (KRAS G12D [2]): 95%

CCc1c(F)ccc2cc(O)cc(-c3ncc4c(N5CCC[C@@](C)(O)C5)nc(OCCN5CCC(CCOc6cc([C@H](C(=O)N7C[C@H](O)C[C@H]7C(=O)N[C@@H](C)c7ccc(-c8scnc8C)cc7)C(C)C)on6)CC5)nc4c3F)c12 [Compound 79]
IC50 (AGS): 44 nM | DC50 (KRAS G12D [1]): 44 nM | Dmax (KRAS G12D [2]): 95%

CCc1c(F)ccc2cc(O)cc(-c3ncc4c(N5CCC[C@@](C)(O)C5)nc(OCC5(CN6CCC(c7cn([C@H](C(=O)N8C[C@H](O)C[C@H]8C(=O)N[C@@H](C)c8ccc(-c9scnc9C)cc8)C(C)C)nn7)CC6)CC5)nc4c3F)c12 [Compound 131, (2S,4R)-1-((S)-2-(4-(1-((((7-(8-ethyl-7-fluoro-3-hydroxynaphthalen-1-yl)-8-fluoro-4-((R)-3-hydroxy-3-methylpiperidin-1-yl)pyrido[4,3-d]pyrimidin-2-yl)oxy)methyl)cyclopropyl)methyl)piperidin-4-yl)-1H-1,2,3-triazol-1-yl)-3-methylbutanoyl)-4-hydroxy-N-(((S)-1-(4-(4-methylthiazol-5-yl)phenyl)ethyl)pyrrolidine-2-carboxamide]
IC50 (AGS): 34 nM | DC50 (KRAS G12D [1]): 18 nM | Dmax (KRAS G12D [2]): 95%

CCc1c(F)ccc2cc(O)cc(-c3ncc4c(N5CCC[C@@](C)(O)C5)nc(OCC5(CN6CCN(Cc7cn([C@H](C(=O)N8C[C@H](O)C[C@H]8C(=O)N[C@@H](C)c8ccc(-c9scnc9C)cc8)C(C)C)nn7)CC6)CC5)nc4c3F)c12 [Compound 132]
IC50 (AGS): 25 nM | DC50 (KRAS G12D [1]): 19 nM | Dmax (KRAS G12D [2]): 95%

C=C1CN2[C@H](COc3cc(-c4cn([C@H](C(=O)N5C[C@H](O)C[C@H]5C(=O)N[C@@H](C)c5ccc(-c6scnc6C)cc5)C(C)C)nn4)ccn3)CC[C@@]2(COc2nc(N3CCC[C@@](C)(O)C3)c3cnc(-c4cc(O)cc5ccc(F)c(CC)c45)c(F)c3n2)C1 [Compound 121]
IC50 (AGS): 40 nM | DC50 (KRAS G12D [1]): 30 nM | Dmax (KRAS G12D [2]): 95%

CCc1c(F)ccc2cc(O)cc(-c3ncc4c(N5CCC[C@@](C)(O)C5)nc(OCC5(CN6CCC(CN7CCN(c8cc([C@H](C(=O)N9C[C@H](O)C[C@H]9C(=O)N[C@@H](C)c9ccc(-c%10scnc%10C)cc9)C(C)C)on8)CC7)CC6)CC5)nc4c3F)c12 [Compound 104]
IC50 (AGS): 39 nM | DC50 (KRAS G12D [1]): 27 nM | Dmax (KRAS G12D [2]): 95%

CCc1c(F)ccc2cc(O)cc(-c3ncc4c(N5CCC[C@@](C)(O)C5)nc(OC[C@]56CCCN5[C@@H](COc5cnc(-c7cn([C@H](C(=O)N8C[C@H](O)C[C@H]8C(=O)N[C@@H](C)c8ccc(-c9scnc9C)cc8)C(C)C)nn7)cn5)CC6)nc4c3F)c12 [Compound 159]
IC50 (AGS): 6.2 nM | DC50 (KRAS G12D [1]): 2.3 nM | Dmax (KRAS G12D [2]): 95%

CCc1c(F)ccc2cc(O)cc(-c3ncc4c(N5CCC[C@@](C)(O)C5)nc(OCC5(CN6CC(N7CCN(c8cc([C@H](C(=O)N9C[C@H](O)C[C@H]9C(=O)N[C@@H](C)c9ccc(-c%10scnc%10C)cc9)C(C)C)on8)CC7)C6)CC5)nc4c3F)c12 [Compound 116]
IC50 (AGS): 27 nM | DC50 (KRAS G12D [1]): 30 nM | Dmax (KRAS G12D [2]): 95%

CCc1c(F)ccc2cc(O)cc(-c3ncc4c(N5CCC[C@@](C)(O)C5)nc(OCC5(CN6CCC7(CC6)CCN(c6cc([C@H](C(=O)N8C[C@H](O)C[C@H]8C(=O)N[C@@H](C)c8ccc(-c9scnc9C)cc8)C(C)C)on6)CC7)CC5)nc4c3F)c12 [Compound 155, (2S,4R)-1-((R)-2-(3-(9-((1-((7-(8-ethyl-7-fluoro-3-hydroxynaphthalen-1-yl)-8-fluoro-4-((R)-3-hydroxy-3-methylpiperidin-1-yl)pyrido[4,3-d]pyrimidin-2-yl)oxy)methyl)cyclopropyl)methyl)-3,9-diazaspiro[5.5]nonan-3-yl)isoxazol-5-yl)-3-methylbutanoyl)-4-hydroxy-N-((S)-1-(4-(4-(4-methylthiazol-5-yl)phenyl)ethyl)pyrrolidine-2-carboxamide]
IC50 (AGS): 23 nM | DC50 (KRAS G12D [1]): 8.7 nM | Dmax (KRAS G12D [2]): 95%

CCc1c(F)ccc2cc(O)cc(-c3ncc4c(N5CCC[C@@](C)(O)C5)nc(OCC5(CN6CCN(C7CN(c8cc([C@H](C(=O)N9C[C@H](O)C[C@H]9C(=O)N[C@@H](C)c9ccc(-c%10scnc%10C)cc9)C(C)C)on8)C7)CC6)CC5)nc4c3F)c12 [Compound 156]
IC50 (AGS): 9.6 nM | DC50 (KRAS G12D [1]): 9.6 nM | Dmax (KRAS G12D [2]): 95%

CCc1c(F)ccc2cc(O)cc(-c3ncc4c(N5CCC[C@@](C)(O)C5)nc(OCC5(CN6CCC(N(C)c7ccc(-c8cn([C@H](C(=O)N9C[C@H](O)C[C@H]9C(=O)N[C@@H](C)c9ccc(-c%10scnc%10C)cc9)C(C)C)nn8)cn7)CC6)CC5)nc4c3F)c12 [Compound 154]
IC50 (AGS): 13 nM | DC50 (KRAS G12D [1]): 5.5 nM | Dmax (KRAS G12D [2]): 95%

CCc1c(F)ccc2cc(O)cc(-c3ncc4c(N5CCC[C@@](C)(O)C5)nc(OCC5(CN6CCC(N7CCC(c8cn([C@H](C(=O)N9C[C@H](O)C[C@H]9C(=O)N[C@@H](C)c9ccc(-c%10scnc%10C)cc9)C(C)C)nn8)CC7)CC6)CC5)nc4c3F)c12 [Compound 137]
IC50 (AGS): 37 nM | DC50 (KRAS G12D [1]): 37 nM | Dmax (KRAS G12D [2]): 95%

CCc1c(F)ccc2cc(O)cc(-c3ncc4c(N5CCC[C@@](C)(O)C5)nc(OCC5(CN6CCN(CC78CC(c9cn([C@H](C(=O)N%10C[C@H](O)C[C@H]%10C(=O)N[C@@H](C)c%10ccc(-c%11scnc%11C)cc%10)C(C)C)nn9)(C7)C8)CC6)CC5)nc4c3F)c12 [Compound 148]
IC50 (AGS): 15 nM | DC50 (KRAS G12D [1]): 13 nM | Dmax (KRAS G12D [2]): 95%

Reference: EP4631940A1, “COMPOUND TARGETING PAN-KRAS PROTEIN DEGRADATION AGENT AND USE THEREOF” (Betta Pharmaceuticals Co., Ltd., priority 2022, dated 2024)
